Assay [1] has as its system mouse breast cancer cell line 4T1. In words: Subcutaneous graft tumors of mouse breast cancer cell line 4T1 in BalB/C mice, with lung metastasis nodules. Particulars: for Average tumor weight (g) / Average tumor suppression rate (%) / Number of metastatic lung nodules: 4T1 in BalB/C mice; for Average tumor weight (g) / Average tumor suppression rate (%): intraperitoneal once a day for 21 days; for Average tumor weight (g): doses of Table 1, n = 10, mean ± SD; for Average tumor suppression rate (%): doses of Table 1, vs negative control; for Number of metastatic lung nodules: lungs after 21 days of dosing, negative control 35; for number of lung tumor nodules compared with the model group (in words): 4T1 breast cancer lung metastasis, lungs fixed with 4% paraformaldehyde. In kind it is in vivo. The method, then: (§1) Specie and strain: BalB/C ordinary mice and C57BL/6 ordinary mice.
(§2) Route of administration: intraperitoneal injection.
(§3) Dose of the novel multi-target immune complex: 200 μL/each;
(§4) Dosing frequency: once a day for 21 consecutive days;
(§5) Number of animals per group: 10.
(§6) Used herein are mouse colorectal cancer cell line CT26, mouse breast cancer cell line 4T1 and mouse melanoma cell line B16F10, which were purchased from the cell bank of Chinese Academy of Sciences.
(§7) Cancer cells were cultured, passaged, collected at the logarithmic phase of cells, and prepared into a cell suspension at a concentration of (1.0×10^7) per ml. Mice were injected with 0.2 ml of the cell suspension at the axilla of the right forelimb (cell number 2.0×10^6 cells/each), and tumorigenicity was successful in about 8 days.
(§8) These mice were randomly divided into 11 groups equally, namely, group A: negative control group (PBS group), group B: positive control (cGAMP) group (dose: 10 mg/kg), group C: ENPP1-YZ1 group (dose: 5 mg/kg), group D: ENPP1-YZ2 group (dose: 5 mg/kg), group E: anti-PD-L1 VHH group (dose: 2.5 mg/kg), group F: anti-CD47 VHH group (dose: 2.5 mg/kg), group G: complex I group, group H: complex II group, group I: complex III group, group J: complex IV group, and group K: complex V group. The mice were administered once a day for 21 days. After 21 days, the mice were executed, the tumor weight was weighed, and the tumor inhibition rate was calculated by [1-average tumor weight of experimental groups (groups B, C, D, E, F, G, H, I, J, and K)/average tumor weight of group A]×100%.
(§9) The mouse colorectal cancer cell line CT26 was prepared and injected into BalB/C ordinary mice. The mouse breast cancer cell line 4T1 was prepared and injected into BalB/C ordinary mice. The melanoma cell line B16F0 was prepared and injected into C57BL/6 ordinary mice. The anti-tumor effects of different drugs were observed.
(§10) Data were expressed as x±s and processed using a SPSS 10.0 software. One-way ANOVA test was used to compare the significance of the differences in tumor weight between groups, with a significance level a=0.05.
Dissections were performed on mice that had been executed for the 4T1 breast cancer study, where the lung tissues were carefully peeled off and photographed for observation after fixation with 4% paraformaldehyde. It could be clearly seen that the lungs of the mice in the model group were black and existed multiple white tumor nodules with various sizes on the surface. […] By statistical analysis of the tumor nodules in the lung tissues of mice, the results of the efficacy of inhibiting the lung metastasis of breast cancer cells were shown in Table 3.

Assay [2] has as its system murine colorectal cancer cell CT26. In words: Subcutaneous graft tumors of murine colorectal cancer cell CT26 in BalB/C mice. The settings on record: intraperitoneal once a day for 21 days; for Average tumor weight (g): doses of Table 1, n = 10, mean ± SD; for Average tumor suppression rate (%): doses of Table 1, vs negative control. It counts as in vivo, mouse. As for the experimental part: as §1, §2, §3, §4, §5, §6, §7, §8, §9, §10

Assay [3] deals with mouse melanoma cell line B16F0. Kind of assay: Subcutaneous graft tumors of mouse melanoma cell line B16F0 in C57BL/6 mice. It counts as in vivo. Particulars: intraperitoneal once a day for 21 days; for Average tumor weight (g): doses of Table 1, n = 10, mean ± SD; for Average tumor suppression rate (%): doses of Table 1, vs negative control. As for the experimental part: as §1, §2, §3, §4, §5, §6, §7, §8, §9, §10

Turning to “2-[(4-methyl-(thiazolo[4,5-B]pyridinyl)-2-thio)methyl]-7-fluoro quinazoline-4(3H)-one [ENPP1-YZ2]”, the “Average tumor weight (g)” value was 0.852 ± 0.223 (g) in assay [1], 0.805 ± 0.218 (g) in assay [2] and 0.926 ± 0.227 (g) in assay [3]. The entries for the “Average tumor suppression rate (%)” value in assay [1], in assay [2] and in assay [3] were 62.5%, 64.5% and 61.2%, respectively. The “Number of metastatic lung nodules” value in assay [1] came out at 20.
In the case of `COc1ccc2[nH]c(SCc3nc4cc(F)ccc4c(=O)[nH]3)nc2n1` [ENPP1-YZ1, 2-[(5-methoxy-(imidazo[4,5-B]pyridinyl)-2-thio)methyl]-7-fluoroquinazoline-4(3H)-one], in assay [1], the “Average tumor weight (g)” value was 0.898 ± 0.136 (g), the “Average tumor suppression rate (%)” value was determined as 60.5% and the “Number of metastatic lung nodules” value is 21. Also, in assay [2], the “Average tumor weight (g)” value is on record as 0.816 ± 0.203 (g) and the “Average tumor suppression rate (%)” value turned out to be 63.9%. For the same molecule, in assay [3], the “Average tumor weight (g)” value is 0.943 ± 0.208 (g) and the “Average tumor suppression rate (%)” value was found to be 60.5%.
Take `Nc1nc2c(ncn2[C@@H]2O[C@@H]3COP(=O)(O)O[C@H]4[C@@H](O)[C@H](n5cnc6c(N)ncnc65)O[C@@H]4COP(=O)(O)O[C@@H]2[C@@H]3O)c(=O)[nH]1` [cGAMP, cyclic dinucleotide 2′,3′-cGAMP, reference compound]: in assay [1], the “number of lung tumor nodules compared with the model group (in words)” value was “a decrease in the number of tumor nodules”, the “Average tumor weight (g)” value is listed as 0.775 ± 0.221 (g), the “Average tumor suppression rate (%)” value worked out at 65.9% and the “Number of metastatic lung nodules” value was determined as 12. Also, in assay [2], the “Average tumor weight (g)” value is 0.706 ± 0.152 (g) and the “Average tumor suppression rate (%)” value is 68.8%. In addition, in assay [3], the “Average tumor weight (g)” value is on record as 0.808 ± 0.137 (g) and the “Average tumor suppression rate (%)” value is reported as 66.1%.

B1: Anti-CD47 VHH: anti-CD47 nanobody, SEQ ID NO: 2, 6His-tagged, expressed in E. coli (protein)
VHH: QVQLVESGGGLVEPGGSLRLSCAASGIIFKINDMGWYRQAPGKRREWVAASTGGDEAIYRDSVKDRFTISRDAKNSVFLQMNSLKPEDTAVYYCTAVISTDRDGTEWRRYWGQGTQVTVSS
modifications: 6His tag
Take B1: in assay [1], the “number of lung tumor nodules compared with the model group (in words)” value is reported as “a small decrease in the number of tumor nodules”, the “Average tumor weight (g)” value was 1.805 ± 0.176 (g), the “Average tumor suppression rate (%)” value is 20.2% and the “Number of metastatic lung nodules” value stood at 25. Also, in assay [2], the “Average tumor weight (g)” value is listed as 1.807 ± 0.187 (g) and the “Average tumor suppression rate (%)” value turned out to be 20.2%. Also, in assay [3], the “Average tumor weight (g)” value is recorded as 1.809 ± 0.217 (g) and the “Average tumor suppression rate (%)” value was determined as 24.2%.

B2: Anti-PD-L1 VHH: anti-PD-L1 nanobody, SEQ ID NO: 1, 6His-tagged, expressed in E. coli (protein)
VHH: QVQLQESGGGLVQTGGSLRLSCAASGSTVSSSMMAWWRQTPGNQRELVALVASGNNTNYVDSVKGRFTVSRDNAKNTMYLQMNSLKPEDTAVYYCRILSVNGIWYWGQGTQVTVSS
modifications: 6His tag; Aritifical sequence
B2: in assay [1], the “number of lung tumor nodules compared with the model group (in words)” value is on record as “a small decrease in the number of tumor nodules”, the “Average tumor weight (g)” value is recorded as 1.752 ± 0.214 (g), the “Average tumor suppression rate (%)” value stood at 22.9% and the “Number of metastatic lung nodules” value was 27. In addition, in assay [2], the “Average tumor weight (g)” value was 1.735 ± 0.206 (g) and the “Average tumor suppression rate (%)” value worked out at 23.4%. Besides, in assay [3], the “Average tumor weight (g)” value is reported as 1.758 ± 0.212 (g) and the “Average tumor suppression rate (%)” value is 26.3%.

Values taken from patent US20240238201A1, “LIPOSOME CARRIER-BASED MULTI-TARGET COMPLEX, DRUG DELIVERY PLATFORM CONTAINING THE SAME, AND APPLICATION THEREOF” (HANGZHOU XINGAO BIOTECHNOLOGY CO., LTD., priority 2021, published 2024).
